Test systems include 786-0 renal; SF-268 CNS; T-47D breast; SR leukemia; ACHN renal; HS 578T breast; MDA-MB-231 breast; BT-549 breast; NCI/ADR-RES ovarian; LOX IMVI melanoma.
Common to all, as to test: DTP human tumour cell line panel, 48 h

From PubChem BioAssay (NCI) come the findings set out here.

Molecules are shown by their SMILES.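 Compound exposure: 48 hours, 5 concentrations, 96-well plates. At the GI50, growth is halved. TGI marks complete inhibition of growth.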

As for `Oc1c(Cl)cc(Cl)c(Cl)c1CNCCNCc1c(O)c(Cl)cc(Cl)c1Cl`, the GI50 in the assay with 786-0 renal is 1.48 µM; in the assay with SF-268 CNS it was 0.997 µM; in the assay on T-47D breast, 0.988 µM; in the assay on SR leukemia, 0.622 µM; with ACHN renal, 0.549 µM; with HS 578T breast it was 5.32 µM. In addition, the GI50 is 2.27 µM in the assay on MDA-MB-231 breast, 2.67 µM in the assay on BT-549 breast, 0.245 µM in the assay with NCI/ADR-RES ovarian and 0.357 µM in the assay on LOX IMVI melanoma. Further, the TGI was 8.43 µM with 786-0 renal; 12.1 µM with SF-268 CNS; greater than 50 µM in the assay on T-47D breast; greater than 50 µM in the assay on SR leukemia; 7.22 µM in the assay on ACHN renal; 27.9 µM in the assay on HS 578T breast. Further, the TGI in the assay on MDA-MB-231 breast turned out to be 16.6 µM; in the assay on BT-549 breast it was 10 µM; with NCI/ADR-RES ovarian, 6.84 µM; with LOX IMVI melanoma it was 5.19 µM.
With `Cc1c(C)c2ccc3oc4ccccc4c3c2oc1=O`, the TGI with 786-0 renal, in the assay on SF-268 CNS, in the assay on SR leukemia, in the assay with ACHN renal and in the assay on LOX IMVI melanoma was greater than 100 µM in each case.
On to `COC1CCC(OS(C)(=O)=O)C(CO)O1` (configuration not stated), for which the TGI in the assay with 786-0 renal, with SR leukemia, in the assay on ACHN renal and with LOX IMVI melanoma was greater than 100 µM each time.
With `C=C(c1ccc(OC)c(/C=C/C(=O)c2ccc3c(c2)OCO3)c1)c1cc(OC)c(OC)c(OC)c1`, the GI50 with 786-0 renal is 2.16 µM; in the assay with SF-268 CNS, 3.18 µM; in the assay with T-47D breast it was 2.66 µM; in the assay with SR leukemia, 0.907 µM; in the assay with HS 578T breast it was 4.65 µM; with MDA-MB-231 breast it was 5.97 µM. Further, the GI50 was 2.15 µM with BT-549 breast, 2.77 µM in the assay on NCI/ADR-RES ovarian and 1.58 µM in the assay with LOX IMVI melanoma. The concentration for total growth inhibition (TGI) in the assay on 786-0 renal is 5.61 µM; with SF-268 CNS, greater than 100 µM; in the assay with T-47D breast, greater than 100 µM; in the assay on SR leukemia, greater than 100 µM; with HS 578T breast, greater than 100 µM; with MDA-MB-231 breast, greater than 100 µM. Besides, the TGI is 7.27 µM in the assay with BT-549 breast, 37.2 µM in the assay with NCI/ADR-RES ovarian and 3.52 µM in the assay with LOX IMVI melanoma.
As to `CN[C@H]1CN(c2ccc3c(=O)c(C(=O)O)cn(-c4nccs4)c3n2)C[C@@H]1OC`, the GI50 is 0.426 µM in the assay on 786-0 renal; 0.706 µM in the assay on SF-268 CNS; 1.23 µM in the assay on T-47D breast; 0.0508 µM in the assay on SR leukemia; 1.49 µM with HS 578T breast; 1.52 µM in the assay on MDA-MB-231 breast. Also, the results for the GI50 with BT-549 breast, with NCI/ADR-RES ovarian and with LOX IMVI melanoma were 0.758 µM, 1.3 µM and 0.266 µM, respectively. In addition, the TGI in the assay on 786-0 renal came to 6.18 µM; with SF-268 CNS, 6.49 µM; in the assay on T-47D breast, 7.76 µM; with SR leukemia, 0.777 µM; with HS 578T breast, 6.68 µM; in the assay on MDA-MB-231 breast it was 6.92 µM. Further, the TGI in the assay on BT-549 breast amounted to 3.05 µM; in the assay on NCI/ADR-RES ovarian, 7.56 µM; in the assay with LOX IMVI melanoma it was 3.4 µM.
With `C=CN(C(=O)N1CCN(c2cc3c(cc2F)c(=O)c(C(=O)O)cn3C2CC2)CC1)c1nc(-c2ccc(OC)cc2)cs1`, the GI50 in the assay on 786-0 renal is 3.37 µM; in the assay on SF-268 CNS it was 4.14 µM; in the assay on T-47D breast, 3.12 µM; in the assay with SR leukemia, 2.69 µM; in the assay with ACHN renal, 3.77 µM; in the assay on HS 578T breast, 3.22 µM. Further, the values for the GI50 in the assay on BT-549 breast, with NCI/ADR-RES ovarian and with LOX IMVI melanoma were 2.39 µM, 3.07 µM and 2.45 µM, respectively. In addition, the TGI in the assay on 786-0 renal is 23.1 µM; in the assay on SF-268 CNS, greater than 100 µM; in the assay on T-47D breast it was greater than 100 µM; in the assay on SR leukemia, greater than 100 µM; with ACHN renal, greater than 100 µM; in the assay with HS 578T breast, 14.5 µM. Also, the total growth inhibition concentration (TGI) in the assay on BT-549 breast is 7.52 µM; in the assay with NCI/ADR-RES ovarian it was 9.07 µM; in the assay with LOX IMVI melanoma, greater than 100 µM.
On to `COC(COC(N)=O)C1=C(N2CC2)C(=O)C(C)=C(N2CC2)C1=O` (configuration not stated), for which the TGI was 0.186 µM in the assay on 786-0 renal; 0.624 µM with SF-268 CNS; 2.19 µM in the assay on SR leukemia; 0.0449 µM with ACHN renal; 0.859 µM in the assay on MDA-MB-231 breast; 0.304 µM in the assay with BT-549 breast. Also, the total growth inhibition concentration (TGI) in the assay on NCI/ADR-RES ovarian turned out to be 0.101 µM; in the assay on LOX IMVI melanoma it was 0.326 µM.
With `Cc1ccc(C)c(N2C(=O)C(=O)C(c3nc4ccccc4s3)/C(=N/N)C2=O)c1` (configuration not stated), the TGI with 786-0 renal, with SF-268 CNS, in the assay on SR leukemia, in the assay on ACHN renal and with LOX IMVI melanoma was greater than 100 µM in each case.
As to `OCC1C(OCc2ccccc2)C(OCc2ccccc2)C(OCc2ccccc2)CN1Cc1ccccc1` (configuration not stated), the TGI with 786-0 renal is greater than 100 µM; in the assay on SF-268 CNS, greater than 100 µM; in the assay on T-47D breast, greater than 100 µM; in the assay with SR leukemia it was greater than 100 µM; with ACHN renal, 17.9 µM; with HS 578T breast, greater than 100 µM. For the same molecule, the TGI in the assay with MDA-MB-231 breast, in the assay on NCI/ADR-RES ovarian and with LOX IMVI melanoma was greater than 100 µM in each case.
For the molecule `O=C1C=C(Nc2ccc(Cl)cc2Cl)c2ccccc2C1=O`, the TGI in the assay on 786-0 renal is greater than 100 µM; with SF-268 CNS it was greater than 100 µM; in the assay on SR leukemia, 74.9 µM; in the assay on ACHN renal, greater than 100 µM.
In the case of `C=C[C@@H](C)[C@]1(C(=O)OC)CCCC12OCCO2`, the TGI in the assay with 786-0 renal, with SF-268 CNS, with SR leukemia, with ACHN renal and with LOX IMVI melanoma was greater than 100 µM in each case.
Take `CC1Cc2c(Cl)ncnc2N(C)c2ccc(Cl)cc21` (configuration not stated): the GI50 is 0.321 µM with 786-0 renal; 0.319 µM in the assay on SF-268 CNS; 0.521 µM with T-47D breast; 0.467 µM in the assay on SR leukemia; 0.348 µM with ACHN renal; 0.342 µM with HS 578T breast. Moreover, the figures for the GI50 in the assay on MDA-MB-231 breast, in the assay with BT-549 breast and with NCI/ADR-RES ovarian were 0.274 µM, 0.309 µM and 0.333 µM, respectively. For the same molecule, the TGI with 786-0 renal is greater than 100 µM; in the assay on SF-268 CNS, 18.2 µM; with T-47D breast, greater than 100 µM; with SR leukemia, greater than 100 µM; in the assay on ACHN renal it was greater than 100 µM; in the assay with HS 578T breast, greater than 100 µM. For the same molecule, the TGI in the assay with MDA-MB-231 breast was 0.691 µM; in the assay on BT-549 breast, 11.1 µM; in the assay on NCI/ADR-RES ovarian, 32.3 µM.

As a reminder, the GI50 is the concentration giving 50% growth inhibition. Usually TGI stands for the concentration giving total growth inhibition.
